According to patent publication US6235891A, “Glucocorticoid receptor agonist and decreased PP5” (South Alabama Medical Science Foundation, priority 1999, dated 2001):

Assays:
Format in all cases: cell-based, human
PP5 mRNA = test: Northern blot analysis of PP5 mRNA expression in A549 cells; settings: doses of 25 to 500 nM
Source text: The oligonucleotides shown in Table 1 were designed using the Genbank sequences HSSERTHRP (Genbank accession number X92121), HSRNAPPP5 (Genbank accession number X89416) and PPP5C (Genbank accession number U25174), synthesized and tested for inhibition of PP5 mRNA expression in A549 cells using a Northern blot assay. All oligonucleotides shown in Table 1 are chimeric oligonucleotides with central 2'-deoxy "gaps," which have phosphorothioate backbones, flanked on both sides by 2'-methoxyethoxy (2'-MOE) "wings" (shown in bold), which have phosphodiester backbones. All cytosines in the 2'-MOE wings are 5-methylcytosines.
In the initial screen, A549 cells were treated with oligonucleotides at a concentration of 300 nM oligonucleotide for four hours in the presence of […] lipofectin. Results were normalized and expressed as a percent of control. The effect of each oligonucleotide on levels of PP5 mRNA, expressed as approximate percent inhibition compared to control, is shown in Table 1. In this initial screen, oligonucleotides giving a reduction of PP5 mRNA of approximately 50% or greater were considered active. […] These sequences (SEQ ID NO: 1, 2, 3, 4, 6, 7 and 12, respectively, SEQ ID Nos shown in bold in Table 1) are therefore preferred.
These oligonucleotides were tested for their ability to reduce PP5 mRNA levels in A549 cells, using oligonucleotide doses of 25 to 500 nM.
The human lung tumor cell line A549 was obtained from the American Type Culture Collection (Rockville Md.) and were grown in DMEM (Gibco BRL, Gaithersburg Md.), supplemented with 10% fetal calf. Cells were seeded on 60 mm plates. When they reached 70% confluency, they were washed with DMEM and 1 ml of DMEM containing 15 μg/ml DOTMA/DOPE (Lipofectin®, GIBCO-BRL) and oligonucleotide at desired concentration was added. Duplicate dishes were used for each treatment condition. After 4 hours of treatment at 37°, cells were washed and cultured in fresh DMEM containing 10% fetal bovine serum for an additional 17 hours. Cells were then harvested and total RNA was extracted with TRIzol Reagent (GIBCO-BRL) according to manufacturer's protocol. Total RNA (20 μg) was fractionated on a 1% agarose gel containing formaldehyde, and transferred to a DURLON-UV (Stratagene) nylon membrane. Following UV crosslinking, the filters were hybridized with the appropriate protein phosphatase probe. The ^32 P-labeled human PP cDNA probes are generated with DECAPrime® DNA Labeling Kit (Ambion) according to the manufacturer's protocol. Hybridization was performed in a hybridization solution containing 50% formamide at 42° for 16 hours. This was followed by two low stringency washes (2×SSC) at room temperature and two high stringency washes (0.1×SSC/0.5% SDS) at 55° C. Hybridization signals were visualized by autoradiography, and filters were then stripped and reprobed with a ^32 P-labeled glyceraldehyde-3-phosphate dehydrogenase (GAPDH) probe to confirm equal loading. The densities of hybridization signals were measured with the NIH Image program (ImagePC).
The cells were harvested, and total RNA was extracted with TRIzol® Reagent according to the methods of the manufacturer. Total RNA (20 μg) was fractionated on 1% agarose gels containing formaldehyde and transferred to DURLON-UV nylon membranes (Stratagene). Following UV cross-linking, the filters were hybridized with a [α^32 P]probe for human PP5. The human PP5 cDNA probe was generated from the full length coding region of PP5 and [α^32 P]-dATP was labeled with DECAprime® DNA Labeling Kit according to the manufacturer's protocol. Hybridization was performed in the presence of 50% formamide, 0.1 M Pipes, 0.8 M NaCl, 5×Denhardt's solution, 100 μg/ml denatured herring sperm DNA, 1×10^6 cpm/ml [α-^32 P]-labeled probe and 10% dextran sulfate at 42° C. for 16 hours. Following hybridization, the membrane was subjected to two low stringency washes (2×SSC) at room temperature and then two high stringency washes (0.1×SSC/0.5% SDS) at 55° C. […]

A549 cells [1] = test: A549 cell proliferation (viable cell counts); settings: 300 nM, all 5 days
Protocol: A549 cells were treated with ISIS 15534 or its scrambled control, ISIS 15521 at a concentration of 300 nM. Each day for the next 5 days, viable cells were counted.
A549 cells were seeded in 12-well tissue culture plates at about 50% confluence in DMEM containing 10% fetal bovine serum. The next day, cells were treated with the PP5-specific antisense oligonucleotide, ISIS 15534, or its scrambled control, ISIS 15521, at a final concentration of 300 nM as described in Example 7. On each of the following 5 days, cultures from three wells of each treatment gruop were trypsinized, collected and counted. Cell viability was determined by trypan blue staining, and the results given are the mean of three independent experiments.
A549 cells were seeded in 12-well tissue culture plates at a density of 5.0×10^4 cell/dish. On the next day, the cells were treated with PP5 specific antisense oligonucleotides (ISIS 15534) or the scrambled mismatch control (ISIS 15521) at a final concentration of 300 nM as described above. On each of the next five days, the cell cultures were treated briefly with trypsin to detach the cells from the dish (three wells from each test group). The number of cells was then determined by counting using a hemacytometer. Cell viability was determined with trypan blue staining. The percentage of viable cells was calculated by dividing the number of cells excluding trypan blue by the total number of cells, and the results are reported as the mean +/- SD of data collected from three independent experiments.
The antiproliferative effect of dexamethasone correlates with the presence of wild type p53 and the expression of p21^Waf1/Cip1 mRNA. Referring to FIGS. 1A-1C, the effect of dexamethasone on cell proliferation in p53-defective T-24 human bladder carcinoma, p53-null TR9 human fibroblasts (Webster et al. 1993; Maiyar et al. 1996), and p53 wild-type A549 human lung carcinoma cells was determined by treating cells in log-phase growth with a single dose of 100 nM dexamethasone and counting the number of cells in treated (.cndot.) and untreated (.box-solid.) cultures for six consecutive days following treatment. Each point represents the mean of triplicate dishes with error bars representing SE. Under similar conditions, treatment with ISIS 15534, a potent inhibitor of PP5 gene expression, inhibited growth in A459 but not T-24 or TR9 cells (Zuo et al. 1998). Referring to FIG. 1D, a comparison of p21^Waf1/Cip1 (p21) and serum glucocorticoid inducible protein kinase (sgk) mRNA levels in p53 competent (Lanes 3, 4) and p53 deficient (Lanes 1, 2, 5, 6) cell cultures after dexamethasone treatment is shown. Cell cultures in logphase growth were treated with 100 nM dexamethasone (+) or vehicle alone as a control (-). After 24 hours total mRNA was prepared and analyzed for p21 and sgk mRNA levels by Northern analysis.

A549 cells [2] = test: [3H]-thymidine incorporation (DNA synthesis) in A549 cells; settings: 300 nM, all 5 days
Protocol: Cells were pulse-labeled with [^3 H]-thymidine for 5 hours at intervals over the next five days. Cells were lysed and [^3 H]-thymidine incorporation (indicative of DNA synthesis) was determined by liquid scintillation counting.
At timed intervals during the next 5 days, cells were pulse-labeled with [^3 H]-thymidine (0.5 μCi/ml) for 5 hours. […] The results given are the mean of three independent experiments.

ISIS 15521: mismatch (scrambled) control oligonucleotide, phosphodiester wings, phosphorothioate gap; GTGCGATCGTTGCGGTTAGC, SEQ ID NO: 14 (sugars by position and backbone not given here; phosphodiester wings, phosphorothioate gap) [reference compound]
Inhibition of PP5 mRNA levels at any of the doses tested (PP5 mRNA): ≤ 20% | Proliferation relative to untreated control (A549 cells [1]): approximately equivalent to untreated control | [3H]-thymidine incorporation relative to untreated control (A549 cells [2]): approximately equivalent to untreated control
